Blank lines part the entries; values can stand above or below the molecule they belong to.
What was measured:
[1] = tested on: 135 metK RNA (RNA, riboswitch) GGUCUAUCUUAUUAAUAGCCGUUGAGACGAGGGGUCGAAGAAGCGGUGGCAAACCAGUCCAAAUCAAUGAUUUGGAUAUGGGGCCCAACCUGAGCGCAGAGCUUUUCUGUUCUGUGAACAAUAAGAGGAUAAGCAG; experiment: in-line probing; details: 100 mM KCl, 2 mM MgCl2, 50 mM Tris-HCl pH 7.5, ~20 °C, apparent
[2] = tested on: T. ilyis ldcC SAM-I variant riboswitch WT (TiltrxWT) (RNA, riboswitch) AAAAUAUCUCUUAUUAAUAGCCGUUGAGACGAGGGGUCGAAGAUACGGUGGCAAACCAAUCAAUCCAAUUUUUUUGCAGUACGGAUUGAUAUUGGGUGCCCAACCUGAGCGUAGGAUUAUCCAAGUCCUAUGAGCAAUAAGAGGAAAAGCAGCUGAUAGAUAUCGAAGCUUUCCUUUGGUUGGAGAGCUUUUUUUAUGCCCAUUUUUUAUAUCAAAGGGGGAAAUCUAU; experiment: single-round transcription termination; details: 100 mM KCl, 2 mM MgCl2, 20 mM Tris-HCl pH 8.0, 37 °C; for binding: 1 mM tested, no termination increase; for T50: E. coli RNA polymerase, apparent
[3] = tested on: (RNA, riboswitch) AAAAUAUCUCUUAUUAAUAGCCGUUGAGACGAGGGGUCGAAGAUACGGUGGCAAACCAAUCAAUCCAAUUUUUUUGCAGUACGGAUUGAUAUUGGGUGCCCAACCUGAGCGUAGGAUUAUCCAAGUCCUAUGAGCAAUAAGAGGAAAAGCAGCUGAUAGAUAUCGAAGCUUUCCUUUGGUUGGAGAGCUUUUUUUAUGCCCAUUUUUUAUAUCAAAGGGGGAAAUCUAU; experiment: single-round transcription termination; details: 100 mM KCl, 2 mM MgCl2; 20 mM Tris-HCl pH 8.0, 37 °C; 1 mM tested; no termination increase
[4] = tested on: T. ilyis hypo consensus SAM-I riboswitch (TilconsSAMItrx) (RNA, riboswitch) AAAAUAACUUCUUUAUCACGAGAGAUUGAGGGACUGGCCCGAUGACAUCUCAGCAACCGACCCACGCGUAACGCGGCGGCACGGUGCUAAAUCCUGCAGAGUAAUCUGAGAGAUAAGAAGAGCAAAUCGACAUUCCCGACUCUUCUUGUUAUAAGAAGGGUUUUUUGUUUUCAAAAAAACAAUCUGGAGGGAAAAACG; experiment: single-round transcription termination; details: 100 mM KCl, 2 mM MgCl2, 20 mM Tris-HCl pH 8.0, 37 °C
[5] = tested on: 135 metK M14 (RNA, riboswitch) GGUCUAUCUUAUUAAAAGCCGUUGAGACGAGGGGUCGAAGAAGCGGUGGCAUACCAGUCCAAAUCAAUGAUUUGGAUAUGGGGCCAAACCUGAGCGCAGAGCUUUUCUGUUCUGUGAACAAUAAGAGGAUAAGCAG; experiment: in-line probing; details: 100 mM KCl, 2 mM MgCl2; 50 mM Tris-HCl pH 7.5, ~20 °C; 1 and 5.6 mM tested
[6] = tested on: T. ilyis ldcC M9 (TiltrxshortP1) (RNA, riboswitch) AAUUAAUAGCCGUUGAGACGAGGGGUCGAAGAUACGGUGGCAAACCAAUCAAUCCAAUUUUUUUGCAGUACGGAUUGAUAUUGGGUGCCCAACCUGAGCGUAGGAUUAUCCAAGUCCUAUGAGCAAUAAGAGGAAAAGCAGCUGAUAGAUAUCGAAGCUUUCCUUUGGUUGGAGAGCUUUUUUUAUGCCCAUUUUUUAUAUCAAAGGGGGAAAUCUAU; experiment: single-round transcription termination; details: 100 mM KCl, 2 mM MgCl2; 20 mM Tris-HCl pH 8.0, 37 °C; no termination response

Structure (SMILES): CCCNCCCN
binding [2]: no

Structure (SMILES): CCNCCCN
binding [2]: no

Structure (SMILES): NCCCN
binding [2]: no

Structure (SMILES): CNCCCN
binding [2]: no

Structure (SMILES): NCCCNCCCCNCCCN
KD ([1]; Hill 1.4): ~ 340 μM
T50 [2]: 79 µM

Structure (SMILES): NCCCCNCCCN
KD ([1]; Hill 1.4, replicate ~730 μM): ~ 670 μM
binding [5]: weak
T50 [2]: 214 µM
binding [6]: no
binding ([4]; 1 mM tested, no termination response): no

More lines, now with the values ahead:

KD ([1]; Hill 1.5): ~ 860 μM
Structure (SMILES): CC(=O)NCCCNCCCCNCCCN

binding [2]: no
Structure (SMILES): CSC[C@H]1O[C@@H](n2cnc3c(N)ncnc32)[C@H](O)[C@@H]1O

binding [3]: no
Structure (SMILES): NCCCSC[C@H]1O[C@@H](n2cnc3c(N)ncnc32)[C@H](O)[C@@H]1O

binding [2]: no
binding ([4]; 1 mM SAM, strong termination): yes
Structure (SMILES): C[S+](CC[C@H](N)C(=O)O)C[C@H]1O[C@@H](n2cnc3c(N)ncnc32)[C@H](O)[C@@H]1O (some centres unmarked)

binding [2]: no
Structure (SMILES): CC(=O)NCCCNCCCCN

Source: publication PMC10853860 (2023)
